Laboratory results: patent EP0559893A1, “XANTHINE DERIVATIVE” (priority 1990, dated 1992)
pKi: −log10 of the molar value.

Legend:
calvaria = test: Inhibitory effect on bone absorption (PTH-stimulated calcium release from cultured calvaria); type: cell-based, mouse; settings: test compound 10^-4 M, PTH 10^-8 M; for inhibition at 100 µM: Mus musculus, bone absorption, 96 hours, read-out: Inhibition Rate (%); for Ca Concentration (mg/dl) (n = 6, mean +/- S.E.M.): culture collected after 96 hours; for bone absorption by PTH (result in words): Duncan's test
Description: The calvaria was excised from a newborn dd mouse (5 to 6 days old) under sterile conditions. The calvaria was washed with a modified Dulbecco phosphate buffer physiological saline solution containing neither calcium nor magnesium (a product of Gibco Oriental), and divided into two parts along the center suture.
The culture medium was renewed 48 hours after the start of culturing. For determining the amount of calcium liberated from the bone by the action of PTH (bone absorption), the calcium content in the culture as collected after 96 hours of culturing was measured. The calcium concentration in the culture was measured with Calcium C Test Wako (manufactured by Wako Pure Chemical Industries, Ltd.). The bone absorption rate was calculated using the following equation. The test of significance of the inhibitory effect on bone absorption was performed by the Duncan's multi-weight comparative test. Inhibition rate (%) = [(CP - CD )/(CP - C₀)] × 100 [formula] CD indicates the total calcium concentration in the culture treated with both the test compound and PTH; CP indicates the total calcium concentration in the culture treated with only PTH (control); and C₀ indicates the total calcium concentration in the culture containing neither the test compound nor PTH.

dd male mice = test: Acute toxicity test; type: in vivo; settings: oral administration; mortality observed 7 days after the administration
Source text: Three dd male mice having a weight of 20 ± 1 g were used for one group. A test compound was orally administered to the mice.
The mortality was observed 7 days after the administration to determine the minimum lethal dose (MLD).

Adenosine A₂ receptor = Adenosine A₂ receptor (Rattus norvegicus, UniProt P30543); test: Adenosine A2 receptor binding test (3H-NECA binding); settings: for Ratio of Affinity with Receptor (A2 /A1 ): A2 (rat corpus striatum) versus A1 (guinea pig cerebrum); for inhibition at 100 µM: read-out: A2 Receptor Inhibition (%) 10^-4 M; for inhibition at 10 µM: read-out: A2 Receptor Inhibition (%) 10^-5 M
ddY male mice = test: Mouse locomotor activity; type: in vivo; settings: po, enhancement of locomotor activity, measured for 3 hours after administration, read-out: Minimum Effective Dose (mg/kg, p.o.)
Description: Five ddY male mice having a weight of 19 to 21 g were used for one group. A test compound and theophylline were orally administered to the mice and then the mice were out in an acrylic test cage (length 26 × width 45 × height 25 cm). The amount of locomotor activity of each mouse was measured with Automex II (manufactured by Columbus) for 3 hours after the administration. Test of significance between the control group and the test compound-administered group was performed by the Student's t-test, and enhancement of the locomotor activity was judged. Furthermore, the minimum effective dose showing a significant difference was determined.

Adenosine A₁ receptor = target: T1, Adenosine A₁ receptor (Cavia porcellus, UniProt P47745); test: Adenosine A1 receptor binding test (3H-CHA binding); settings: for inhibition at 100 µM: read-out: A1 Receptor Inhibition (%) 10^-4 M; for inhibition at 10 µM: read-out: A1 Receptor Inhibition (%) 10^-5 M
T1 sequence (P47745 1-326): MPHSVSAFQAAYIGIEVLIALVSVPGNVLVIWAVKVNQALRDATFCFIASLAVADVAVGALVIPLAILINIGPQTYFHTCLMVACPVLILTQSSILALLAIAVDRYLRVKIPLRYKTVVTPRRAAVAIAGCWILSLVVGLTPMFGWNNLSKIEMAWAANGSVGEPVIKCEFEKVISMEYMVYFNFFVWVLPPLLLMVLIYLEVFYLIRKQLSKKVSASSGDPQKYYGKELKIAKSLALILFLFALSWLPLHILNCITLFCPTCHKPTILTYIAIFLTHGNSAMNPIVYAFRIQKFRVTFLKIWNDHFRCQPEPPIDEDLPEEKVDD

Sequence of Adenosine A₂ receptor (P30543 whole entry): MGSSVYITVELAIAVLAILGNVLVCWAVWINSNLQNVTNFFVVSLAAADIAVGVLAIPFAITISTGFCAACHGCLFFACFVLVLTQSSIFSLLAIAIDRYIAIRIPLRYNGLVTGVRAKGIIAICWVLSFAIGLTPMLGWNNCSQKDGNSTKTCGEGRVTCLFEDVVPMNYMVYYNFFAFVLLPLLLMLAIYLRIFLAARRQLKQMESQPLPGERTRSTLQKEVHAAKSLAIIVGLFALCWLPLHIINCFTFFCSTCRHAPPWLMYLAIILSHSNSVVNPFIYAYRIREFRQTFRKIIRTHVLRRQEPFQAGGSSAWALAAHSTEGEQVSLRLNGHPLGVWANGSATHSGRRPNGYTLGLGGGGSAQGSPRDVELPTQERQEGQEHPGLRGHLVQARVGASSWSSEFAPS

In the case of `COc1cc(/C=C/c2nc3c(c(=O)n(C)c(=O)n3C)n2C)cc(OC)c1OC` [Comparative Compound X, 1,3,7-trimethyl-8-[(E)-3,4,5-trimethoxystyryl]xanthine, reference compound], the inhibition at 100 µM (calvaria) was 55%, the “Ca Concentration (mg/dl) (n = 6, mean +/- S.E.M.)” value (calvaria) was 10.32 ± 0.13 mg/dL and the “bone absorption by PTH (result in words)” value (calvaria) was “significantly inhibited bone absorption by PTH”.

In the case of `CCCn1c(=O)c2nc(/C=C/c3ccccc3)[nH]c2n(CCC)c1=O` [Compound 1, 1,3-Dipropyl-8-(E)-styrylxanthine], the “MLD” value (dd male mice) was >300 mg/kg.

For `CCCn1c(=O)c2c(nc(/C=C/c3ccccc3)n2C)n(CCC)c1=O` [Compound 2, 1,3-Dipropyl-7-methyl-8-(E)-styrylxanthine], the “Ratio of Affinity with Receptor (A2 /A1 )” value (shortened to “Ratio of Affinity”) (Adenosine A₂ receptor) was 52, the inhibition at 100 µM (Adenosine A₂ receptor) was 96% and the inhibition at 10 µM (Adenosine A₂ receptor) was 95%. It also gave a minimal effective dose (ddY male mice) of 1.25 mg/kg, a pKi (Adenosine A₁ receptor) of 5.85 and an inhibition at 100 µM (Adenosine A₁ receptor) of 82%. For the same compound, the inhibition at 10 µM (Adenosine A₁ receptor) was 64%.

In the case of `CCCn1c(=O)c2nc(/C(C)=C/c3ccccc3)[nH]c2n(CCC)c1=O` [Compound 3, 1,3-Dipropyl-8-[(E)-α-methylstyryl]xanthine], the “MLD” value (dd male mice) was >300 mg/kg.

In the case of `CCCn1c(=O)c2c(nc(/C(C)=C/c3ccccc3)n2C)n(CCC)c1=O` [Compound 4, 1,3-Dipropyl-7-methyl-8-[(E)-α-methylstyryl]xanthine], the “MLD” value (dd male mice) was >300 mg/kg.

`CCCn1c(=O)c2nc(/C=C/c3ccc(Cl)cc3)[nH]c2n(CCC)c1=O` [Compound 5, 8-[(E)-4-Chlorostyryl]-1,3-dipropylxanthine] was tested, and the “MLD” value (dd male mice) was >300 mg/kg.

In the case of `CCCn1c(=O)c2c(nc(/C=C/c3ccc(Cl)cc3)n2C)n(CCC)c1=O` [Compound 6, 8-[(E)-4-Chlorostyryl]-7-methyl-1,3-dipropylxanthine], the “MLD” value (dd male mice) was >300 mg/kg.

`CCCn1c(=O)c2nc(/C=C/c3ccc(Cl)c(Cl)c3)[nH]c2n(CCC)c1=O` [Compound 7, 8-[(E)-3,4-Dichlorostyryl]-1,3-dipropylxanthine] was tested, and the “MLD” value (dd male mice) was >300 mg/kg.

In the case of `CCCn1c(=O)c2c(nc(/C=C/c3ccc(Cl)c(Cl)c3)n2C)n(CCC)c1=O` [Compound 8, 8-[(E)-3,4-Dichlorostyryl]-1,3-dipropyl-7-methylxanthine], the “MLD” value (dd male mice) was >300 mg/kg.

For `CCCn1c(=O)c2nc(/C=C/c3ccc(OC)cc3)[nH]c2n(CCC)c1=O` [Compound 9, 1,3-Dipropyl-8-[(E)-4-methoxystyryl]xanthine], the “MLD” value (dd male mice) was >300 mg/kg.

With `CCCn1c(=O)c2c(nc(/C=C/c3ccc(OC)cc3)n2C)n(CCC)c1=O` [Compound 10, 1,3-Dipropyl-8-[(E)-4-methoxystyryl]-7-methylxanthine] the “Ratio of Affinity” value (Adenosine A₂ receptor) was 51, the inhibition at 100 µM (Adenosine A₂ receptor) was 95% and the inhibition at 10 µM (Adenosine A₂ receptor) was 95%. For the same compound, the “MLD” value (dd male mice) was >300 mg/kg, the pKi (Adenosine A₁ receptor) was 5.70 and the inhibition at 100 µM (Adenosine A₁ receptor) was 86%. It also gave an inhibition at 10 µM (Adenosine A₁ receptor) of 65%.

`CCCn1c(=O)c2nc(/C=C/c3ccc(OC)c(OC)c3)[nH]c2n(CCC)c1=O` [Compound 11, 8-[(E)-3,4-Dimethoxystyryl]-1,3-dipropylxanthine] was tested, and the “MLD” value (dd male mice) was >300 mg/kg.

Work on `CCCn1c(=O)c2c(nc(/C=C/c3ccc(OC)c(OC)c3)n2C)n(CCC)c1=O` [Compound 12, 8-[(E)-3,4-Dimethoxystyryl]-1,3-dipropyl-7-methylxanthine] yielded an inhibition at 100 µM (Adenosine A₂ receptor) of 97%, an inhibition at 10 µM (Adenosine A₂ receptor) of 96% and a minimal effective dose (ddY male mice) of 0.63 mg/kg. The “MLD” value (dd male mice) was >300 mg/kg, the pKi (Adenosine A₁ receptor) was 5.51 and the inhibition at 100 µM (Adenosine A₁ receptor) was 74%. The inhibition at 10 µM (Adenosine A₁ receptor) was 61%.

In the case of `CCCn1c(=O)c2nc(/C=C/c3cc(OC)c(OC)c(OC)c3)[nH]c2n(CCC)c1=O` [Compound 13, 1,3-Dipropyl-8-[(E)-3,4,5-trimethoxystyryl]xanthine], the “MLD” value (dd male mice) was >300 mg/kg.

With `CCCn1c(=O)c2c(nc(/C=C/c3cc(OC)c(OC)c(OC)c3)n2C)n(CCC)c1=O` [Compound 14, 1,3-Dipropyl-7-methyl-8-[(E)-3,4,5-trimethoxystyryl]xanthine] the “Ratio of Affinity” value (Adenosine A₂ receptor) was 4600, the inhibition at 100 µM (Adenosine A₂ receptor) was 92% and the inhibition at 10 µM (Adenosine A₂ receptor) was 94%. The minimal effective dose (ddY male mice) was 10 mg/kg, the “MLD” value (dd male mice) was >300 mg/kg and the inhibition at 100 µM (calvaria) was 119%. The “bone absorption inhibition rate compared with Comparative Compound X (result in words)” value (calvaria) was “significantly higher than that of Comparative Compound X”, the “Ca Concentration (mg/dl) (n = 6, mean +/- S.E.M.)” value (calvaria) was 7.66 ± 0.08 ++ mg/dl and the “bone absorption by PTH (result in words)” value (calvaria) was “significantly inhibited bone absorption by PTH”. It also gave a pKi (Adenosine A₁ receptor) of 4.19, an inhibition at 100 µM (Adenosine A₁ receptor) of 50% and an inhibition at 10 µM (Adenosine A₁ receptor) of 30%.

In the case of `CCCn1c(=O)c2[nH]c(/C=C/c3ccco3)nc2n(CCC)c1=O` [Compound 15, 1,3-Dipropyl-8-[2-(E)-(2-furyl)vinyl]xanthine], the “MLD” value (dd male mice) was >300 mg/kg.

With `CCCn1c(=O)c2[nH]c(/C=C/c3cccs3)nc2n(CCC)c1=O` [Compound 17, 1,3-Dipropyl-8-[2-(E)-(2-thienyl)vinyl]xanthine] the “MLD” value (dd male mice) was >300 mg/kg.

With `CCCn1c(=O)c2c(nc(/C=C/c3cccs3)n2C)n(CCC)c1=O` [Compound 18, 1,3-Dipropyl-7-methyl-8-[2-(E)-(2-thienyl)vinyl]xanthine] the “MLD” value (dd male mice) was >300 mg/kg.

`C=CCn1c(=O)c2c(nc(/C=C/c3cc(OC)c(OC)c(OC)c3)n2C)n(CC=C)c1=O` [Compound 24, 1,3-Diallyl-7-methyl-8-[(E)-3,4,5-trimethoxystyryl]xanthine] was tested, and the inhibition at 100 µM (Adenosine A₂ receptor) was 96%, the inhibition at 10 µM (Adenosine A₂ receptor) was 93% and the pKi (Adenosine A₁ receptor) was < 4.00. For the same compound, the inhibition at 100 µM (Adenosine A₁ receptor) was 31% and the inhibition at 10 µM (Adenosine A₁ receptor) was 31%.

`Cn1c(=O)c2[nH]cnc2n(C)c1=O` [Theophylline, theophylline, reference compound] gave a minimal effective dose (ddY male mice) of 20 mg/kg.
